Laboratory results reported in patent US11124536B2, “Uridine nucleoside derivatives, compositions and methods of use” (Tufts University, priority 2013, dated 2021).
Entries after “also recorded” stand apart in the source; their conditions may differ.

Key:
[1] = Half-life in human whole blood; type: in vitro ADME
human THP-1 cells = experiment: Cytokine release from THP-1 cells into culture medium (multiplex cytokine analysis); type: cell-based; conditions: 24 hours
Protocol: THP-1 cells, a human cell line derived from monocytes, were treated in vitro with vehicle, the P2Y6 receptor antagonist MRS 2578, or compound 5, singly or in combination. THP-1 cells were seeded in 24 well plates at a density of 4×10^5 cells/well in culture medium for 24 hours. Thereafter, vehicle, compound 5, or MRS 2578 (singly or in combination) were added to the cultures for 24 hours. Subsequently the culture medium was aspirated and subjected to multiplex cytokine analysis. Data are presented as means+/−sem. MRS 2578 has a molecular weight of about 472 and is also described using CAS number 711019-86-2.

PSAPP mice [2] = experiment: Multiplex analysis of circulating plasma cytokine levels; type: in vivo
Protocol: Inflammatory cytokines were assessed in mouse plasma of both wild type and PS1/APP mice (Alzheimer's mouse model) and the impact of intraperitoneal delivery of the diphosphate derivative of compound 5 on circulating cytokines was assessed. […] 24 hours following the final injection, plasma was collected. Wildtype, age matched littermates and PSAPP mice (>6 months of age) were treated either with vehicle (phosphate buffered saline) or vehicle containing compound.
As part of the study described in Example 16, the levels of numerous cytokines in plasma of mice treated with vehicle or compound 5 were also evaluated. As described in Example 16, treatment was initiated when the mice were approximately 3 months old. PSAPP mice were treated for 100 days with daily injections of 10 μg/kg of compound 5 or vehicle. Following treatment and the fear conditioning task experiment, plasma was taken for multiplex cytokine analysis of circulating cytokine levels in vehicle-treated versus compound-treated PSAPP mice. Cytokine levels are assayed using a multi-plex system where beads are labelled with capture antibody specific for each analyte tested. Each bead set is coupled to a specific capture antibody and is distinguishable from beads coupled to a different capture antibody. Thus, the levels of each analyte can be evaluated and distinguished. […] In FIGS. 17-20, compound 5 is indicated along the x-axis as “compound”.

PSAPP mice [3] = experiment: Postmortem immunohistochemistry of amyloid beta plaque load in cortex and hippocampus; type: in vivo
Protocol: Mice were perfused transcardially with 4% paraformaldehyde and 40 μm Coronal sections were collected. Sections were sequentially incubated in 0.3% H2O2 for 10 minutes, blocking solution for 2 hrs, blocking solution containing the primary antibody (rabbit anti-beta1-42; rabbit anti-beta1-40, from Chemicon International and rat anti-CD45) for 48 hours at 4° C., and blocking solution containing biotinylated antibody or fluorescently-labeled antibody for 2 hours at room temperature. Sections were visualized in a bright field microscope or a confocal microscope, and the optical density was obtained using MetaMorph software.
To generate these graphs showing plaque load, mice were euthanized, brain sections cut and antibodies directed against Aβ 42 were used to disclose Aβ plaques. Images were acquired digitally and an algorithm was applied to threshold the image so that plaques were isolated from the background. The algorithm then calculated the percent area of the field of view occupied by the plaques.
Brain samples were collected for Abeta analysis with immunostaining. Brains samples were collected after transcardial perfusion with phosphate buffer and 4% paraformaldehyde. Floating brain sections (40 micron) were collected using a microtome. Immunostaining for Aβ40 and Aβ42 were performed according to previously established protocol. Images with DAB staining were collected with brightfield microscopy and analyzed with ImageJ Macro. All data analysis and statistics were performed in GraphPad Prism 6.0.

[4] = Cmax at the effective dose; conditions: mouse, in vivo; dose 10 ug/kg
Oral bioavailability = conditions: in vivo
PSAPP mice [5] = experiment: Contextual fear conditioning test (freezing %); type: in vivo
Protocol: On day one, animals were trained in a fear conditioning apparatus for a total of 7 minutes with a two-pairing paradigm of cue and mild foot shock (a 30-s acoustic-conditioned stimulus, 80 dB; a 2-s shock stimulus, 0.5 mA). To evaluate contextual fear learning, the animals were returned to the training context 24 hours post-training, and freezing behavior was scored for 5 minutes. Freezing behavior was monitored by MotorMonitor (Hamilton Kinder) and scored every 5 seconds.
This represents a decrease in the cognitive impairment observed in the untreated mice.

For `O=C1C=CC([C@@H]2O[C@H](CO)C(O)C2O)C(=O)N1Cc1noc2ccccc12` (stereo partly shown) [compound 5], the half-life [1] was 16.4 h, the “release of cytokines from THP-1 cells” value (human THP-1 cells; 10 nM) was “reduced” and the “release of IL-7 from human THP-1 cells” value (human THP-1 cells; compound 5 10 nM alone, FIG. 26) was “decreased”. For the same compound, the “plasma levels of IL-4, IL-10, and IL-12 (IL-12(p70))” value (PSAPP mice [2]; Example 17: 10 μg/kg daily 100 days from approx. 3 months old, FIG. 17) was “statistically significant reduction”, the “plasma level of p40 subunit alone (IL-12(p40))” value (PSAPP mice [2]; Example 17: 10 μg/kg daily 100 days, FIG. 17) was “does not reflect a change” and the “average plasma levels of IFN-r, IL-1β, IL-2, IL-3, IL-5, IL-6, IL-7, IL-9, IL-13, IL-17, LIF, MIP-1α, and MIP-1β” value (PSAPP mice [2]; Example 17: 10 μg/kg daily 100 days, FIGS. 17-20) was “reduced”. The “levels of M-CSF, MIP-2, Eotaxin, GM-CSF, G-CSF, LIX, MCP-1, IL-1α and IP-10” value (PSAPP mice [2]; Example 17: 10 μg/kg daily 100 days, FIGS. 18-20) was “no or substantially no change”, the “plasma levels of IL-12 (IL-12(p70)), IL-13, IL-17, IL-10, IL-4, MIP-1a, MIP-1b, and IL-2” value (PSAPP mice [2]; Example 18: 10 μg/kg i.p. daily 100 days from approx. 3 months old, FIG. 21) was “statistically significant reduction” and the “plasma levels of IL-12 (IL-12(p70)), IL-13, IL-17, IL-10, MIP-1a, MIP-1b, and TNFα” value (PSAPP mice [2]; Example 19: 10 μg/kg i.p. daily 7 days from approx. 6 months old (symptomatic), FIG. 23) was “statistically significant reduction”. The “size distribution of remaining plaques” value (PSAPP mice [3]; 10 μg/kg i.p. once per day for 7 days, PS1/APP mice 26 weeks) was “significantly reduced”, the Aβ40 plaque burden (PSAPP mice [3]; 10 μg/kg i.p. once per day for 7 days, PS1/APP mice 26 weeks, cortex, FIG. 13A) was “significantly reduced” and the Aβ42 plaque burden (PSAPP mice [3]; 10 μg/kg i.p. once per day for 7 days, PS1/APP mice 26 weeks, cortex, FIG. 13B) was “significantly reduced”. For the same compound, the “plaque burden vs vehicle” value (PSAPP mice [3]; Example 16: 10 μg/kg i.p. daily 100 days from approx. 3 months old, FIG. 16) was “decrease; also recorded: reduced”, the “amyloid beta accumulation (plaque load) in the cortex” value (PSAPP mice [3]; Example 18: 10 μg/kg i.p. daily 100 days, FIG. 22A, p<0.01) was “decreased” and the “amyloid beta accumulation (plaque load) in the hippocampus” value (PSAPP mice [3]; Example 18: 10 μg/kg i.p. daily 100 days, FIG. 22B, p<0.02) was “decreased”. For the same compound, the “amyloid beta accumulation in the hippocampus (using Aβ42)” value (PSAPP mice [3]; Example 19: 10 μg/kg i.p. daily 7 days from approx. 6 months old, FIG. 24A lower panel) was “decreased”, the “amyloid beta accumulation in the cortex (using Aβ40)” value (PSAPP mice [3]; Example 19: 10 μg/kg i.p. daily 7 days from approx. 6 months old, FIG. 24A upper panel) was “decreased” and the plaque size (PSAPP mice [3]; Example 19: 10 μg/kg i.p. daily 7 days, FIG. 24B) was “decrease”. The Cmax [4] was 13 nM, the bioavailability (Oral bioavailability) was 72.2% and the “freezing time (contextual fear memory) vs vehicle” value (PSAPP mice [5]; Example 16: 10 μg/kg i.p. daily 100 days from approx. 3 months old (pre-symptomatic), FIG. 15) was “statistically significant increase”. For the same compound, the “freezing time (contextual fear memory) vs vehicle” value (PSAPP mice [5]; Example 18: 10 μg/kg i.p. daily 100 days from approx. 3 months old, FIG. 22C, p<0.02) was “statistically significant increase”.
